From ChEMBL document CHEMBL1201862, “PubChem BioAssay data set” (2004)
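Each compound was tested at five concentrations against cells in 96-well plates for 48 hours. Here, GI50 denotes the concentration required for 50% inhibition of growth.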 Calls of active or inactive are those of the source. Cut-off read from the data, not from the text of the source: active = GI50 up to about 1.1 µM and inactive = higher.

What was measured:
Test in all cases: growth of human tumour cells (NCI), 48 h
[1] = tested on: DLD-1
[2] = tested on: DMS-114
[3] = tested on: KM-20L2
[4] = tested on: LXFL 529
[5] = tested on: RXF 631
[6] = tested on: SNB-78
[7] = tested on: BT-549
[8] = tested on: HOP-18
[9] = tested on: XF498

## N#CCC(=O)N1CCCOCCC1
[1]
  GI50: > 100 µM (inactive)
[2]
  GI50: > 100 µM (inactive)
[3]
  GI50: > 100 µM (inactive)
[4]
  GI50: > 100 µM (inactive)
[5]
  GI50: > 100 µM (inactive)
[6]
  GI50: > 100 µM (inactive)

## O=C1CCC(C(=O)O)C2=C1CCCC2 (stereo unspecified)
[7]
  GI50: > 100 µM (inactive)
[1]
  GI50: > 100 µM (inactive)
[2]
  GI50: > 100 µM (inactive)
[8]
  GI50: > 100 µM (inactive)
[4]
  GI50: > 100 µM (inactive)
[6]
  GI50: > 100 µM (inactive)
[9]
  GI50: > 100 µM (inactive)

## CC(=O)C1(O)CC2(c3ccccc3)C(=O)C1(c1ccccc1)C(c1ccccc1)=C2c1ccccc1 (stereo unspecified)
[1]
  GI50: > 100 µM (inactive)
[2]
  GI50: 10.9 µM (inactive)
[3]
  GI50: > 100 µM (inactive)
[4]
  GI50: > 100 µM (inactive)
[5]
  GI50: 89.1 µM (inactive)
[6]
  GI50: > 100 µM (inactive)
[9]
  GI50: 6.24 µM (inactive)

## CN1CCCCC(C(O)(c2ccccc2)c2ccccc2)C1=O (stereo unspecified)
[1]
  GI50: 39.4 µM (inactive)
[2]
  GI50: 86.1 µM (inactive)
[8]
  GI50: > 100 µM (inactive)
[3]
  GI50: > 100 µM (inactive)
[4]
  GI50: 81.7 µM (inactive)
[5]
  GI50: 42.4 µM (inactive)
[6]
  GI50: > 100 µM (inactive)
[9]
  GI50: > 100 µM (inactive)

## Cc1ccccc1-n1c(N)c(-c2nc3ccccc3[nH]2)sc1=S
[1]
  GI50: 27.3 µM (inactive)
[2]
  GI50: 24.2 µM (inactive)
[8]
  GI50: 30.2 µM (inactive)
[4]
  GI50: 22.1 µM (inactive)
[5]
  GI50: 24.9 µM (inactive)
[6]
  GI50: 32.4 µM (inactive)

## COC1=CC(=O)c2c(O)c3c(c(O)c2C1=O)C[C@](C)(O)C[C@@H]3O
[7]
  GI50: 7.76 µM (inactive)
[1]
  GI50: 1.31 µM (inactive)
[2]
  GI50: 1.46 µM (inactive)
[3]
  GI50: > 100 µM (inactive)
[4]
  GI50: 3.81 µM (inactive)
[5]
  GI50: 1.95 µM (inactive)
[6]
  GI50: 3.85 µM (inactive)
[9]
  GI50: 2.86 µM (inactive)

## CC(C)N1CN(C(C(=O)N[C@@H]2C(=O)N3C2SC(C)(C)C3C(=O)O)c2ccc(O)cc2)CSC1=S (stereo partly specified)
[1]
  GI50: > 100 µM (inactive)
[2]
  GI50: > 100 µM (inactive)
[8]
  GI50: > 100 µM (inactive)
[3]
  GI50: > 100 µM (inactive)
[4]
  GI50: > 100 µM (inactive)
[6]
  GI50: > 100 µM (inactive)
[9]
  GI50: > 100 µM (inactive)

## CC(C)(C)C(=C[S+]([O-])/N=C/c1ccccc1)C(C)(C)C (stereo unspecified)
[1]
  GI50: 31 µM (inactive)
[2]
  GI50: 28.1 µM (inactive)
[3]
  GI50: 52.8 µM (inactive)
[4]
  GI50: 28.4 µM (inactive)
[5]
  GI50: 38.6 µM (inactive)
[6]
  GI50: 12.2 µM (inactive)
[9]
  GI50: 23 µM (inactive)

## C#Cc1c(C)c(/C=C/C(C)=C/C(=O)OC)n(C)c1C
[1]
  GI50: 79.4 µM (inactive)
[2]
  GI50: 36.1 µM (inactive)
[8]
  GI50: > 100 µM (inactive)
[3]
  GI50: 87.7 µM (inactive)
[4]
  GI50: 99.8 µM (inactive)
[6]
  GI50: > 100 µM (inactive)
[9]
  GI50: 77.3 µM (inactive)

## Cc1ccc(NC(=O)C(=O)CC(=O)c2ccccc2)cc1C
[1]
  GI50: > 100 µM (inactive)
[2]
  GI50: 86.9 µM (inactive)
[8]
  GI50: > 100 µM (inactive)
[3]
  GI50: > 100 µM (inactive)
[4]
  GI50: 76.9 µM (inactive)
[6]
  GI50: > 100 µM (inactive)
[9]
  GI50: > 100 µM (inactive)

## CCC1C(C)c2c([nH]c3ccccc23)C2C(=O)N(c3ccccc3)C(=O)C21 (stereo unspecified)
[1]
  GI50: 10.6 µM (inactive)
[2]
  GI50: 13.4 µM (inactive)
[4]
  GI50: 19.6 µM (inactive)
[5]
  GI50: 13.5 µM (inactive)
[6]
  GI50: 19.2 µM (inactive)
[9]
  GI50: 21.5 µM (inactive)

## CC(C)C1CC[C@@H](C)C[C@@]1(O)CC(N)=O (stereo partly specified)
[1]
  GI50: > 100 µM (inactive)
[2]
  GI50: > 100 µM (inactive)
[8]
  GI50: > 100 µM (inactive)
[3]
  GI50: > 100 µM (inactive)
[4]
  GI50: > 100 µM (inactive)
[5]
  GI50: > 100 µM (inactive)
[6]
  GI50: > 100 µM (inactive)
[9]
  GI50: 0.0344 µM (active)

## O=C(NCCCCNc1cccccc1=O)OCc1ccccc1
[1]
  GI50: > 100 µM (inactive)
[2]
  GI50: 56.4 µM (inactive)
[8]
  GI50: > 100 µM (inactive)
[3]
  GI50: > 100 µM (inactive)
[4]
  GI50: > 100 µM (inactive)
[5]
  GI50: > 100 µM (inactive)
[6]
  GI50: > 100 µM (inactive)

## COc1ccc(-c2cc(=O)c3cc(O)ccc3o2)c(OC)c1OC
[1]
  GI50: 36.4 µM (inactive)
[2]
  GI50: 27.9 µM (inactive)
[3]
  GI50: 19.3 µM (inactive)
[4]
  GI50: 30.6 µM (inactive)
[5]
  GI50: 33.2 µM (inactive)
[9]
  GI50: 30.5 µM (inactive)

## N=C(N)NS(=O)(=O)c1ccc(Nc2c3ccccc3nc3c(C(=O)Nc4ccc(S(N)(=O)=O)cc4)ccc(Cl)c23)cc1
[1]
  GI50: > 100 µM (inactive)
[2]
  GI50: > 100 µM (inactive)
[8]
  GI50: > 100 µM (inactive)
[3]
  GI50: > 100 µM (inactive)
[4]
  GI50: > 100 µM (inactive)
[5]
  GI50: > 100 µM (inactive)
[6]
  GI50: 65.5 µM (inactive)
[9]
  GI50: > 100 µM (inactive)

## CC1=NC2(C(=O)O)C3(C(=O)O)N=C(C)OC3(C(F)(F)F)C2(C(F)(F)F)O1 (stereo unspecified)
[1]
  GI50: > 100 µM (inactive)
[2]
  GI50: > 100 µM (inactive)
[8]
  GI50: > 100 µM (inactive)
[3]
  GI50: > 100 µM (inactive)
[6]
  GI50: > 100 µM (inactive)
[9]
  GI50: > 100 µM (inactive)

## CC1C2C=C(O)C(=O)C(C2=O)C1c1ccccc1 (stereo unspecified)
[1]
  GI50: > 100 µM (inactive)
[3]
  GI50: 38.6 µM (inactive)
[4]
  GI50: > 100 µM (inactive)
[5]
  GI50: > 100 µM (inactive)
[6]
  GI50: 87.5 µM (inactive)
